According to patent US11638702B2, “Glyceryl 3-hydroxybutyrates for traumatic brain injury” (NeuroEnerygy Ventures, Inc., priority 2017, dated 2023):

How the values were obtained:
[1] = test system: traumatic brain injury (TBI) patients; assay: Group comparisons of TBI patients / military personnel given glyceryl tris(3-hydroxybutyrate) versus matched patients; assay type: in vivo, human
Method: The patients are followed up approximately 6 months, after the TBI.
Military personnel having closed TBIs due to vehicular accidents or IEDs or other battlefield causes are evaluated for the severity of their TBIs and, where glyceryl tris(3-hydroxybutyrate) is available for administration, are started on a regimen of […] in 2 or 3 divided doses for 7 days (which regimen is generally started within 2 or 3 hours of injury) and then re-evaluated at day 7 to assess whether further treatment for the TBI is warranted. These are compared with comparably injured military personnel where access to the glyceryl tris(3-hydroxybutyrate) was not available for administration within the first week after injury.
In light of Example 10, combat troops and medics associated therewith are provided with glyceryl tris(3-hydroxybutyrate) to take into the field for use in triage in the case of mild-moderate closed TBI situations.
In light of Examples 10 and 11, combat troops are routinely given a morning dose of glyceryl tris(3-hydroxybutyrate) while in combat zones in case they suffer a mild to moderate non-penetrating closed TBI. For those troops that do suffer such TBIs within 12 hours of administration, their recovery, both acutely and longer term, is improved as compared to those only receiving the glyceryl tris(3-hydroxybutyrate) administration upon injury, after being matched for injury severity. Similar comparatives between those getting variously identical regimens of glyceryl tris(3-hydroxybutyrate) post-injury other than the single prophylactic dose prior to injury, with those receiving the preinjury dose faring better than those not receiving it, and further those whose injury is closer in time to the administration (1-2 hours post administration) faring better than those being injured further in time form the administration (10-12 hours post-administration).

[2] = test system: traumatic brain injury (TBI) patients; assay: Oral glyceryl tris(3-hydroxybutyrate) with standard non-restricted diet in individual TBI patients (case examples); assay type: in vivo, human; details: for Clinical status at follow-up: day 7 of regimen
Method: A 60 kg person presents with TBI due to a minor car accident. On initial examination, within 1 hour of the accident, moderate TBI is determined by EMT at the scene, on the basis disorientation and of the Glasgow Coma Scale (9-13). The patient is conscious, is hyperglycemic and able to orally ingest the ester. The patient is started on 0.5 g/kg/day glyceryl tris(3-hydroxybutyrate) orally in 3 divided doses (i.e., 10 g per serving 3 times a day). The patient is transported to a medical facility and allowed to ingest a standard diet lunch, having no glucogenic caloric restriction. […] The patient completes the regimen.
A 70 kg (boxer) presents with a sports injury concussion after having a history of 3 similar concussions over the past year. The past concussions are treated by standard medical practice without the use of ketogenic diet, starvation, or the esters of use in the present invention. The most recent concussive injury occurs 2 hours before the patient being brought into a hospital for treatment. The patient is immediately examined and determined to be hyperglycemic and to have a moderate concussive injury (on the basis of short term loss of consciousness, their lingering disorientation, and a Glasgow Coma Scale score of 9-13). The patient is started on 2.0 g/kg/day glyceryl tris(3-hydroxybutyrate) in three divided dose (i.e.. 46.7 g per serving 3 times a day) and permitted an ordinary standard oral diet not having glucogenic caloric restrictions for a 70 kg person. Treatment continues for 3 days.
The patient in Example 3, knowing that further concussive incidents are likely requests advice as to minimizing the effects of further concussive incidents. The patient is told to restart the glyceryl tris(3-hydroxybutyrate) regimen at least one meal period before partaking in the activity likely to result in a concussive injury. The patient has such serving at a 5 PM dinner and is in a match at 7 PM. The patient does in fact suffer a further TBI which once again is upon examination at the scene is determined to be a moderate TBI, however, the patient is euglycemic. On transport to a medical facility, the patient is re-examined and confirm that they have suffered another moderate TBI. The patient is started on 2.0 g/kg/day glyceryl tris(3-hydroxybutyrate) in three divided doses 46.7 g per serving 3 times a day) and permitted an ordinary standard oral diet not having glucogenic caloric restrictions for a 70 kg person. […] The patient is advised to continue with the glyceryl tris(3-hydroxybutyrate) regimen as in Example 3 for 6 days and return for re-evaluation. The patient maintains the regimen for 3 days instead of the recommended 6 and reports no adverse or lingering effects from the TBI.
The patients in Examples 2, 4, and 5 on re-evaluation are immediately started on the regimens referred to in Examples 1, 3, and 3 respectively for 7 days, and directed to return for re-evaluation on the 7th day of the newly started regimen. […] However, the improvement is not as complete as the patients in Examples 1 or 3.
A 30 kg child is brought to the emergency room with moderate to severe TBI (as per the Modified Glasgow Coma Scale) due to a playground fall, is hyperglycemic, is unconscious, is intubated, and begun on a regimen of 30 g twice daily of glyceryl tris(3-hydroxybutyrate) and further fed standard normal enteral diet. The regimen is continued for 7 days and re-evaluated at that time. […] The treatment is continued, with re-evaluation set for 7 days later.

CC(O)CC(=O)OCC(COC(=O)CC(C)O)OC(=O)CC(C)O (stereo not drawn) [glyceryl tris(3-hydroxybutyrate)]
Long term effects of TBI ([1]; Example 9: moderate TBI, given with normal meals 2 or 3 times a day for one or two weeks, follow-up approximately 6 months after TBI, vs ketogenic diet or starvation): minimal, if not non-existent | Recovery from acute symptoms and long-term post-concussive syndrome symptoms vs those not receiving it ([1]; Example 10: military personnel, closed TBI, 0.5 mg/kg/day to 2.0 mg/kg/day in 2 or 3 divided doses for 7 days, started within 2 or 3 hours of injury): fare much better | Outcome vs treatment as in Example 10 ([1]; Example 11: mild-moderate closed TBI, given within minutes of suffering the TBI): fare even better | Recovery, acutely and longer term, vs administration only upon injury ([1]; Example 12: combat troops, morning prophylactic dose, TBI within 12 hours of administration, matched for injury severity): improved | Disorientation ([2]; Example 1: 60 kg female, moderate TBI (Glasgow Coma Scale 9-13), 0.5 g/kg/day orally in 3 divided doses, standard diet, after 2 days): recovered from their disorientation | Clinical status at follow-up ([2]; Example 1: 60 kg female, moderate TBI, 0.5 g/kg/day orally in 3 divided doses, normal meals): fully recovered | Glycemic status ([2]; Example 1: patient hyperglycemic at presentation, 0.5 g/kg/day, from shortly after ester administration through end of treatment and beyond): euglycemic | Clinical status at follow-up ([2]; Example 3: 70 kg male boxer, 2.0 g/kg/day in three divided doses, standard oral diet): fully recovered | Glycemic status ([2]; Example 3: patient hyperglycemic at presentation, 2.0 g/kg/day, from shortly after ester administration through end of treatment): euglycemic | Adverse effects of the TBI the next day ([2]; Example 6: pre-injury serving, then 2.0 g/kg/day in three divided doses, the next day): no adverse effects | Symptoms on reexamination ([2]; Example 6: regimen maintained for 3 days instead of the recommended 6): no symptoms are seen | Glycemic status at examination after further TBI ([2]; Example 6: serving taken at 5 PM dinner before a 7 PM match (pre-injury dose), moderate TBI): euglycemic | Clinical status at end of treatment ([2]; Example 8: 30 kg child, 30 g twice daily, after an additional 3 days of treatment): fully recovered | Consciousness ([2]; Example 8: 30 kg child, 30 g twice daily, day 4 of continued treatment): regains consciousness | Clinical symptoms ([2]; Example 8: 30 kg child, moderate to severe TBI, unconscious, intubated, 30 g twice daily, standard enteral diet, after 7 days): show improvement, but are not yet in normal ranges
